Data as given in patent publication US20220177459A1, “AROMATIC AMINE COMPOUND AND USE THEREOF IN PREPARATION OF AR AND BRD4 DUAL INHIBITORS AND REGULATORS” (HINOVA PHARMACEUTICALS INC., priority 2019, published 2022).

Key:
VCaP cells = assay: Inhibition of proliferation of other prostate cancer cells: VCaP; type: cell-based; settings: Homo sapiens, same method as LNCaP/AR
Method: (§1) 1) LNCaP/AR cells were subcultured in cell culture medium, and the cells in good growth condition were seeded in a 96-well plate, with 80 μL per well (i.e. 1000 cells per well), and cultured overnight in a 37° C., 5% CO2 cell incubator.
(§2) Immediately before use, the stock solution was diluted 3 times with DMSO, and then diluted as a 3-fold gradient to obtain 9 concentration gradients. Then, the compound of each concentration was diluted 200 times with the culture media (to ensure that the DMSO concentration in the culture system was 0.1%), and two multiple holes were set for each concentration. 20 μL of the diluted compound was added to the cell culture well (with a final concentration of 10 μM, 3.3 μM, 1.1 μM . . . ), and then shook gently to mix. In addition, three negative control wells with only cells and three blank control wells with only culture medium were included (6 wells being each added with DMSO diluted 200 times with 20 μL culture medium).
(§3) 1) After culturing for 6 days, 10 μL of CCK-8 was added to each well and continued culturing for 1 hour in a 37° C., 5% CO2 cell incubator.
(§4) 2) The absorbance (OD value) was measured at 450 nm using a multifunctional microplate reader.
(§5) 3) The data were analyzed by the Dose-response-inhibition equation in the software GraphPad Prism5, and the IC50 value was obtained.
(§6) 2. Biological determination of the inhibitory effect on the proliferation of other prostate cancer cells
(§7) The inhibitory activity of the compound according to the present invention on other drug-resistant prostate cancer cells was measured by the same method as described above, in which VCaP and 22RV1 cells were commercially available.

androgen receptor (AR) = target: T1, androgen receptor (AR) (Homo sapiens, UniProt P10275); assay: Inhibitory activity on the function of androgen receptor (AR), luciferase reporter in transfected cells; type: cell-based; settings: transfected with AR and pGL4.36, testosterone 2 nM, Steady-Glo
T1 construct: host or cells: HEK293
T1 sequence (P10275 1-920): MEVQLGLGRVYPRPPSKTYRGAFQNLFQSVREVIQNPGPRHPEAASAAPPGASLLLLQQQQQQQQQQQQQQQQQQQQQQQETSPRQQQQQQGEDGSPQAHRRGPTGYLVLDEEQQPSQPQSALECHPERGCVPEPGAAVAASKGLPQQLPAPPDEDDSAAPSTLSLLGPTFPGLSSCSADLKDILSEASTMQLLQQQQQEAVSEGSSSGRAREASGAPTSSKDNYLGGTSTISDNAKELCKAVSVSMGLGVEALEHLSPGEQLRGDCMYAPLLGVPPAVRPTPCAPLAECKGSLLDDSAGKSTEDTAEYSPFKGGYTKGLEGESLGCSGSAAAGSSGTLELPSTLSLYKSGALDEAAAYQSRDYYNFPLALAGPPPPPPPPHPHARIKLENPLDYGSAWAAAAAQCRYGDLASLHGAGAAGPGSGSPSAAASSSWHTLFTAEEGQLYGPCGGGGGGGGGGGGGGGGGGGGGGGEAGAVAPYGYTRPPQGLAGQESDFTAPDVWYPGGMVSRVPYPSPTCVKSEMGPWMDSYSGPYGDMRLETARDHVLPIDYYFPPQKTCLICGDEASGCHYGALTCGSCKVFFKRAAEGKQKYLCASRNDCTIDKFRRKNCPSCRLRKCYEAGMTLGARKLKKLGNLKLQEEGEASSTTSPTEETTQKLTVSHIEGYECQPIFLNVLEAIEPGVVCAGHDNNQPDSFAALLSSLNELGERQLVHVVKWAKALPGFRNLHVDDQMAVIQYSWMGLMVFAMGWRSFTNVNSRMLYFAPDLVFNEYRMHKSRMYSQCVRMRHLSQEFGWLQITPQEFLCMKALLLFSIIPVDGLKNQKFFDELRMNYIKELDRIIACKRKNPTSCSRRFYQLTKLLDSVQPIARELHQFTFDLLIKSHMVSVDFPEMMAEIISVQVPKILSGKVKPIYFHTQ
Method: Experimental Example 2 the Inhibitory Activity of the Compound According to the Present Invention on the Function of Androgen Receptor (AR)
Androgen receptor clone (Origene, Cat. No. RC235415)
pGL4.36 vector (Promega, Cat. No. E1360)
1) The cell suspension was diluted with the culture medium for seeding cells to a concentration of 4.0×10^5 cells/ml, for plating and adding transfection reagents.
2) The diluted cell suspension was inoculated into a cell culture plate, with 100 μL per well, and the plate was placed in a cell incubator and cultured overnight.
3) The transfection reagent was prepared as 10 μL/well, and added into the cell culture plate after 15 min at room temperature, then the plate was placed in a cell incubator and cultured overnight.
4) The compound was diluted by a 3-fold gradient with TECAN sampler, to obtain 8 concentration gradients, and the final DMSO concentration was 0.25%. The diluted compound was cultured in a 37° C. incubator for 30 min.
5) 250 nL of testosterone at a final concentration of 2 nM was added to the control well with an […] sampler, placed in a cell incubator, and cultured overnight.
6) Steady-Glo was added at 100 μL/well to the cell culture plate, and then the plate was left at room temperature for 15 min, followed by reading on Envision.
The data were analyzed according to the formula % Effect=(Sample value−LC)/(HC−LC)*100, using XL-fit software (provided by Business Solutions Ltd., version number XL fit 5.0). The inhibition rate of each compound against androgen receptor (AR) was calculated, and the half-inhibitory concentration IC50 of each compound against androgen receptor (AR) was further calculated.

LNCaP/AR cells = assay: Inhibition of proliferation of prostate cancer cells LNCaP/AR (CCK-8); type: cell-based; settings: 144 h, 6 days culture, CCK-8, OD 450 nm, read-out: IC50 (μM), inhibitory activity on prostate cancer cell LNCap/AR
Method: 1. Biological determination of the inhibitory effect on the proliferation of prostate cancer cells LNCaP/AR
Cell culture medium: RIPM1640 media, 10% FBS, 1% Pen Strep;
as §1
2) The drug was prepared with dimethylsulfoxide (DMSO) as a 10 mM stock solution.
as §2, §3, §4, §5

22RV1 cells = assay: Inhibition of proliferation of other prostate cancer cells: 22RV1; type: cell-based; settings: Homo sapiens, same method as LNCaP/AR
Method: as §1, §2, §3, §4, §5, §6, §7

BRD4 (D1+D2) protein = target: T2, BRD4 (D1+D2) protein (Homo sapiens, UniProt O60885); assay: HTRF binding to BRD4 (D1+D2) protein; settings: BRD4(1,2), 2 h at room temperature, read-out: IC50 (μM), inhibitory activity on BRD4
T2 construct: purchased BPS 31044
Description: Homogeneous time-resolved fluorescence technique (HTRF) was used to detect the binding effect of compound to BRD4 (D1+D2) protein.
Experimental materials: • BRD4(1,2) (BPS, Cat. No. 31044), • I-CBP 112 (MCE, Cat. No. HY-19541), • (+)-JQ1 (BPS, Cat. No. 27402).
Using homogeneous time-resolved fluorescence method, the detection steps are as follows:
1. According to the layout of the detection plate, the test compound was gradiently diluted on the Echo plate, and the final dilution concentration of DMSO was 0.1%.
2. The compound or DMSO was transferred to the 384-well detection plate with the Echo automatic sampler.
3. Two-fold concentration of protein and peptide mixture was added to the detection plate.
4. Two-fold concentration of the detection mixture was added to the detection plate, and shook for 30 s.
5. Incubating for 2 h at room temperature.
6. The fluorescence signal was read on the Envision multifunctional microplate reader (excitation wavelength at 340 nm; emission wavelength at 615 nm and 665 nm).
1. The experimental data were entered into an Excel file, and equation (1) was used to calculate the inhibition rate:
Inh %=(Max−Signal)/(Max−Min)*100 Equation (1)
2. The obtained data were input into GraphPad software, and equation (2) was used to calculate the IC50 value.
Y=Bottom+(Top−Bottom)/(1+10^((LogIC50−X)*Hill Slope)) Equation (2)
wherein, Y axis is the inhibition rate, while X axis is the compound concentration.

| SMILES | IC50 (VCaP cells) [µM] | IC50 (androgen receptor (AR)) [µM] | IC50 (LNCaP/AR cells) [µM] | IC50 (22RV1 cells) [µM] | IC50 (BRD4 (D1+D2) protein) [µM] |
| --- | --- | --- | --- | --- | --- |
| CCN(c1ccc(C#N)c(Cl)c1)c1cc(-c2c(C)nn(C)c2C)ccc1C [Compound 2] | 0.78 | 0.78 | 0.51 | 5.2 |  |
| CCN(c1ccc(-n2ccnc2C)cc1)c1cc(-c2c(C)noc2C)ccc1C [Compound 27] | 0.99 | 0.89 | 0.38 | 3.77 | 4.1 |
| CCN(c1ccc(-n2ccnc2)c(C(F)(F)F)c1)c1cc(-c2c(C)noc2C)ccc1C [Compound 32] | 0.98 |  | 1.4 | 3.5 |  |
| CCN(c1ccc(F)c(-n2ccnc2)c1)c1cc(-c2c(C)noc2C)ccc1C [Compound 83] | 1.27 | 0.83 |  | 5.2 | 6.7 |
| CCN(c1ccc(C(C)(C)C#N)cc1)c1cc(-c2c(C)noc2C)ccc1C [Compound 110] |  | 1.6 | 0.93 |  |  |
| CCN(c1ccc(C2(C#N)CC2)cc1)c1cc(-c2c(C)noc2C)ccc1C [Compound 111, 1-(4-((5-(3,5-dimethylisoxazol-4-)-2-methylphenyl)(ethyl)amino)phenyl)cyclopropanecarbonitrile] |  | 1.6 | 0.14 | 0.27 |  |

Second part, the compound after the results:

| IC50 (VCaP cells) [µM] | IC50 (androgen receptor (AR)) [µM] | IC50 (LNCaP/AR cells) [µM] | IC50 (22RV1 cells) [µM] | IC50 (BRD4 (D1+D2) protein) [µM] | SMILES |
| --- | --- | --- | --- | --- | --- |
| 1.16 |  | 1.14 | 4.08 |  | CCN(c1ccc(-n2cnc(C)c2)cc1)c1cc(-c2c(C)noc2C)ccc1C [Compound 26] |
| 1.22 | 0.45 | 0.49 | 5.6 |  | CCN(c1ccc(-n2ccnc2)c(F)c1)c1cc(-c2c(C)noc2C)ccc1C [Compound 29] |
| 2.27 |  | 0.9 | > 10 |  | CCN(c1ccc(-n2ccnc2)c(Cl)c1)c1cc(-c2c(C)noc2C)ccc1C [Compound 30] |
| 1.35 | 2.1 | 0.54 | 9.37 | 6.3 | CCN(c1ccc(-n2ccnc2)c(Br)c1)c1cc(-c2c(C)noc2C)ccc1C [Compound 31, N-(3-bromo-4-(1H-imidazol-1-yl)phenyl)-5-(3,5-dimethylisoxazol-4-yl)-N-ethyl-2-methylaniline] |
| 0.88 |  | 0.75 | 2.41 |  | CCN(c1ccc(-n2ccnn2)cc1)c1cc(-c2c(C)noc2C)ccc1C [Compound 33] |
| 1 |  | 0.95 | 2.58 |  | CCN(c1ccc(-n2cnnc2)cc1)c1cc(-c2c(C)noc2C)ccc1C [Compound 34] |
| 0.75 | 1.7 | 0.82 | 7.75 | 1.9 | CCN(c1ccc(-n2ccnn2)c(Br)c1)c1cc(-c2c(C)noc2C)ccc1C [Compound 45] |
|  | 4.9 | 0.61 | 0.63 |  | CCN(c1ccc(Br)cc1)c1cc(-c2c(C)noc2C)ccc1C [Compound 116] |
